Key:
Assay in all cases: combination Emax (second highest fraction inhibited in the dose matrix, 72 h); higher = more inhibition; extreme values may be limits of the assay
[1] = system: FADU (Head and Neck Carcinoma)
Procedure, shortened: (§1)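 After 24 hours at 37°C and 5% CO2 in 1536-well plates, cells in DMEM/F12 or RPMI plus 10% FBS received two-drug dose matrices for 72 hours. Viability came from CellTiter-Glo 2.0 luminescence and was scaled as inhibition, anchored at 0 by vehicle wells and at 1 by blank wells. Combination Emax is taken as the second-highest inhibition in the matrix, and Bliss excess as the observed combination effect less EA + EB − EA·EB, with EA and EB the single-agent effects.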

[2] = system: GP5d (Colorectal Carcinoma)
Procedure, shortened: as §1

[3] = system: HCT-15 (Colorectal Carcinoma)
Procedure, shortened: as §1

[4] = system: HEC-1 (Endometrial Carcinoma)
Procedure, shortened: as §1

[5] = system: HSC-39 (Gastric Carcinoma)
Procedure, shortened: as §1

[6] = system: KE-37 (T-Lymphoblastic Leukemia)
Procedure, shortened: as §1

[7] = system: L-1236 (Hodgkin's Lymphoma)
Procedure, shortened: as §1

[8] = system: LB996-RCC (Kidney Carcinoma)
Procedure, shortened: as §1

LN-229 (Glioblastoma) = system: LN-229 (Glioblastoma)
Procedure, shortened: as §1

[9] = system: LXF-289 (Lung Adenocarcinoma)
Procedure, shortened: as §1

[10] = system: NCI-H2342 (Lung Adenocarcinoma)
Procedure, shortened: as §1

[11] = system: NCI-H446 (Small Cell Lung Carcinoma)
Procedure, shortened: as §1

[12] = system: OPM-2 (Plasma Cell Myeloma)
Procedure, shortened: as §1

[13] = system: PC-3_[JPC-3] (Lung Adenocarcinoma)
Procedure, shortened: as §1

[14] = system: PSN1 (Pancreatic Carcinoma)
Procedure, shortened: as §1

[15] = system: RCM-1 (Colorectal Carcinoma)
Procedure, shortened: as §1

[16] = system: RERF-GC-1B (Gastric Carcinoma)
Procedure, shortened: as §1

SF268 (Low Grade Glioma) = system: SF268 (Low Grade Glioma)
Procedure, shortened: as §1

[17] = system: SK-PN-DW (Other Solid Carcinomas)
Procedure, shortened: as §1

[18] = system: VAL (B-Cell Non-Hodgkin's Lymphoma)
Procedure, shortened: as §1

| Compound | combination Emax [1] | combination Emax [2] | combination Emax [3] | combination Emax [4] | combination Emax [5] | combination Emax [6] | combination Emax [7] | combination Emax [8] | combination Emax (LN-229 (Glioblastoma)) | combination Emax [9] | combination Emax [10] | combination Emax [11] | combination Emax [12] | combination Emax [13] | combination Emax [14] | combination Emax [15] | combination Emax [16] | combination Emax (SF268 (Low Grade Glioma)) | combination Emax [17] | combination Emax [18] |
| --- | --- | --- | --- | --- | --- | --- | --- | --- | --- | --- | --- | --- | --- | --- | --- | --- | --- | --- | --- | --- |
| CC1(C)CCC(CN2CCN(c3ccc(C(=O)NS(=O)(=O)c4ccc(NCC5CCOCC5)c([N+](=O)[O-])c4)c(Oc4cnc5[nH]ccc5c4)c3)CC2)=C(c2ccc(Cl)cc2)C1 [Venetoclax] + CN(C)CCCOc1ccc(-c2ccc3ncc4c(c3c2)n(C2CCOCC2)c(=O)n4C)cn1 [AZD0156] (first compound max 1 µM, 7x7, partner max 1 µM) | 0.196 | 0.279 | 0.226 | 0.163 | 0.926 | 0.196 | 0.705 | 0.222 | 0.212 | 0.245 | 0.203 | 0.304 | 0.574 | 0.25 | 0.3 | 0.45 | 0.242 | 0.298 | 0.825 | 1 |
| CC1(C)CCC(CN2CCN(c3ccc(C(=O)NS(=O)(=O)c4ccc(NCC5CCOCC5)c([N+](=O)[O-])c4)c(Oc4cnc5[nH]ccc5c4)c3)CC2)=C(c2ccc(Cl)cc2)C1 [Venetoclax] + COc1cc(Nc2ncc3c(n2)-c2ccc(Cl)cc2C(c2c(F)cccc2OC)=NC3)ccc1C(=O)O [Alisertib] (first compound max 1 µM, 7x7, partner max 10 µM) | 0.351 | 0.498 | 0.537 | 0.165 | 0.992 | 0.955 | 0.678 | 0.658 | 0.2 | 0.643 | 0.214 | 0.909 | 0.828 | 0.686 | 0.526 | 0.372 | 0.688 | 0.419 | 0.882 | 1 |
| CC1(C)CCC(CN2CCN(c3ccc(C(=O)NS(=O)(=O)c4ccc(NCC5CCOCC5)c([N+](=O)[O-])c4)c(Oc4cnc5[nH]ccc5c4)c3)CC2)=C(c2ccc(Cl)cc2)C1 [Venetoclax] + C[C@@H]1COCCN1C2=NC(=NC(=C2)C3(CC3)[S@](=N)(=O)C)C4=C5C=CNC5=NC=C4 [AZD6738] (first compound max 1 µM, 7x7, partner max 10 µM) | 0.614 | 0.739 | 0.71 | 0.41 | 1 | 1 | 0.847 | 0.654 | 0.582 | 0.554 | 0.265 | 0.924 | 0.943 | 0.442 | 0.396 | 0.78 | 0.428 | 0.64 | 0.929 | 1 |
| CC1(C)CCC(CN2CCN(c3ccc(C(=O)NS(=O)(=O)c4ccc(NCC5CCOCC5)c([N+](=O)[O-])c4)c(Oc4cnc5[nH]ccc5c4)c3)CC2)=C(c2ccc(Cl)cc2)C1 [Venetoclax] + C[C@@H](Nc1cc(F)cc(F)c1)c1cc(C(=O)N(C)C)cc2c(=O)cc(N3CCOCC3)oc12 [AZD8186] (first compound max 1 µM, 7x7, partner max 3 µM) | 0.128 | 0.228 | 0.138 | 0.0634 | 0.972 | 0.356 | 0.665 | 0.306 | 0.0902 | 0.224 | 0.265 | 0.581 | 0.513 | 0.298 | 0.313 | 0.28 | 0.103 | 0.127 | 0.862 | 1 |
| CC1(C)CCC(CN2CCN(c3ccc(C(=O)NS(=O)(=O)c4ccc(NCC5CCOCC5)c([N+](=O)[O-])c4)c(Oc4cnc5[nH]ccc5c4)c3)CC2)=C(c2ccc(Cl)cc2)C1 [Venetoclax] + Cc1cc2ncnn2cc1Nc1ncc2c(n1)n(C1CCOCC1)c(=O)n2C [AZD7648] (first compound max 1 µM, 7x7, partner max 10 µM) | 0.237 | 0.374 | 0.229 | 0.167 | 0.936 | 0.404 | 0.621 | 0.373 | 0.115 | 0.163 | 0.214 | 0.403 | 0.642 | 0.297 | 0.37 | 0.362 | 0.28 | 0.268 | 0.856 | 1 |
| CC1(C)CCC(CN2CCN(c3ccc(C(=O)NS(=O)(=O)c4ccc(NCC5CCOCC5)c([N+](=O)[O-])c4)c(Oc4cnc5[nH]ccc5c4)c3)CC2)=C(c2ccc(Cl)cc2)C1 [Venetoclax] + Cn1cnc2c(F)c(Nc3ccc(Br)cc3Cl)c(C(=O)NOCCO)cc21 [Selumetinib] (first compound max 1 µM, 7x7, partner max 3 µM) | 0.364 | 0.71 | 0.156 | 0.0851 | 0.936 | 0.352 | 0.731 | 0.156 | 0.3 | 0.183 | 0.193 | 0.198 | 0.385 | 0.173 | 0.622 | 0.571 | 0.27 | 0.157 | 0.806 | 1 |
